The values that follow come from patent US5847092A (Zambon Group S.p.A., priority 1994, dated 1998).

≈ marks a conversion by molar mass, not a printed value. Where two headings read alike, the source gives them in different places.

The test system of test [1] is Enterococcus faecalis ATCC 29212. Description: In vitro antibacterial activity, MIC, broth microdilution. The test is classed as cell-based. Particulars: Enterococcus faecalis, ATCC29212; E. faecalis ATCC 29212; MHB; 37° C., 18 hours; read-out: minimum inhibiting concentration MIC. On the procedure:
(§1) a) In vitro antibacterial activity The determination of the minimum inhibiting concentrations (MIC), with respect to Gram-positive and Gram-negative bacteria was carried out through the micromethod of gradual broth dilution in double series [National Committee for Clinical Laboratory Standards, 1990; Methods for dilution antimicrobial susceptibility tests for bacteria that grow aerobically; Approved standards […], Villanova, Pa.], by using Mueller Hinton Broth (MHB) as a culture medium. In the case of […] bacteria, horse serum at 5% (Streptococcus pneumoniae and Streptococcus pyogenes) was added to the medium. Roxithromycin and Clarithromycin [The Merck Index, XI Ed., No. 8253 and 2340, respectively] were used as reference macrolides. MIC, expressed as (μg/ml), were determined after incubation of the microplates at 37° C. for 18 hours, evaluating the lowest antibiotic concentration enabling the inhibition of bacterial development.
For orientation: Broth dilution looks for growth in wells or tubes with falling amounts of substance.

In test [2] the test system is Escherichia coli ATCC 25922. Described as above. The test is classed as cell-based. Particulars: Escherichia coli, ATCC25922; E. coli ATCC 25922; MHB; 37° C., 18 hours; read-out: minimum inhibiting concentration MIC. On the procedure: as §1
The subject of test [3] is Klebsiella pneumoniae ZC 2. The description is as above. Type of test: cell-based. Particulars: Klebsiella pneumoniae, ZC2; K. pneumoniae ZC 2; MHB; 37° C., 18 hours; read-out: minimum inhibiting concentration MIC. On the procedure:
as §1

The subject of test [4] is Staphylococcus aureus PV 14. The test is described as above. Type of test: cell-based. Particulars: Staphylococcus aureus, PV14; S. aureus PV 14; MHB; 37° C., 18 hours; read-out: minimum inhibiting concentration MIC. On the procedure: as §1
Test [5] deals with Streptococcus pneumoniae BS 3. The description is as above. The test is classed as cell-based. Particulars: Streptococcus pneumoniae, BS3; S. pneumoniae BS 3; MHB + 5% horse serum; 37° C., 18 hours; read-out: minimum inhibiting concentration MIC. On the procedure: as §1
In test [6] the test system is Streptococcus pneumoniae BS 4. Described as above. The following applies: Streptococcus pneumoniae, BS4; S. pneumoniae BS 4; MHB + 5% horse serum; 37° C., 18 hours; read-out: minimum inhibiting concentration MIC. The test is classed as cell-based. The protocol: as §1
Test [7] deals with Streptococcus pyogenes A 26. The test is described as above. Type of test: cell-based. The following applies: Streptococcus pyogenes, A26; S. pyogenes A 26; MHB + 5% horse serum; 37° C., 18 hours; read-out: minimum inhibiting concentration MIC. The protocol: as §1
For test [8], the system named is Streptococcus pyogenes C 203. The test is described as above. Particulars: Streptococcus pyogenes, C203; S. pyogenes C 203; MHB + 5% horse serum; 37° C., 18 hours; read-out: minimum inhibiting concentration MIC. The test is classed as cell-based. The protocol:
as §1

In test [9] the test system is Streptococcus pyogenes C 203. In words: In vivo antibacterial activity, experimental pulmonary infection in mouse. The following applies: Streptococcus pyogenes, C203, ip, 240 h, intraperitoneal single dose, read-out: average protecting dose PD50. On the procedure: The in vivo antibacterial activity of the compounds of formula (I), expressed as average protecting dose PD50 (mg/Kg), was evaluated by means of experimental pulmonary infection induced in mouse by Streptococcus pyogenes (example 23).
b) In vivo antibacterial activity
The therapeutical effectiveness, expressed as average protecting dose (PD50), of the considered compounds of formula (I) was evaluated by experimental pulmonary infection induced in mouse by Streptococcus pyogenesC 203.
Charles River albin mice (strain CD 1), of body weight comprised between 23-35 g, stabulated in groups of 6 for cage and normo-feeded with standard diet and water ad libitum were used. A suspension of S. pyogenes C 203 (corresponding about to 10^8 UFC) in tryptose broth (0.05 ml) was intranasally administered to each mouse anesthesized with a mixture of ethyl ether and chloroform.
The compounds under examination were intraperitoneally administered as a single dose, in 0.2% Tween suspension, 24 hours before or 1 hour after the infection.
Mice mortality observation was prolonged up to 10 days from the infection.
PD50 calculation, expressed as (mg/Kg), was carried out through the analysis of probit.
In vivo antibacterial activity, expressed as average protecting dose PD50 (mg/Kg), 24 hours before and 1 hour after the experimental pulmonary infection induced in mouse by Streptococcus pyogenes C 203, of the compounds 4, 10, 16-19, 21, 23, 26-27, 29-30, 33-35 and 38 and of the reference compounds Roxithromycin and Clarithromycin.

As for `CC[C@H]1OC(=O)[C@H](C)[C@@H](O[C@H]2C[C@@](C)(OC)[C@@H](O)[C@H](C)O2)[C@H](C)[C@@H](O[C@@H]2O[C@H](C)C[C@H](N(C)C)[C@H]2O)[C@](C)(O)C[C@@H](C)/C(=N\OCCNCCCCCCNCc2ccc(OC)cc2)[C@H](C)[C@@H](O)[C@]1(C)O` [Compound 17, Erythromycin A (E)-9-[0-[2-[6-[(4-methoxyphenyl)methylamino]hexylamino]ethyl]oxime]], the MIC is 4 µg/mL (≈ 3.96 µM) in [1]; 4 µg/mL (≈ 3.96 µM) in test [2]; 16 µg/mL (≈ 15.8 µM) in [3]; 0.25 µg/mL (≈ 0.247 µM) in test [4]; 0.0312 µg/mL in [5]; 0.0625 µg/mL in test [6]. Besides, the MIC in test [7] amounted to 0.0625 µg/mL; in [8] it was 0.0039 µg/mL. Further, the ED50 in [9] (1 hour after infection) was 1.17 mg/kg; in test [9] (24 hours before infection), 8.16 mg/kg.

In the case of `CC[C@H]1OC(=O)[C@H](C)[C@@H](O[C@H]2C[C@@](C)(OC)[C@@H](O)[C@H](C)O2)[C@H](C)[C@@H](O[C@@H]2O[C@H](C)C[C@H](N(C)C)[C@H]2O)[C@](C)(O)C[C@@H](C)/C(=N\OCCNCCCCCCNCc2ccc3c(c2)OCO3)[C@H](C)[C@@H](O)[C@]1(C)O` [Compound 18, Erythromycin A (E)-9-[0-[2-[6-[(3,4-methylenedioxyphenyl)methylamino]hexylamino]ethyl]oxime]], the MIC in test [1] stood at 2 µg/mL (≈ 1.95 µM); in test [2], 2 µg/mL (≈ 1.95 µM); in test [3], 16 µg/mL (≈ 15.6 µM); in [4], 0.25 µg/mL (≈ 0.244 µM); in test [5] it was 0.0156 µg/mL; in test [6], 0.0312 µg/mL. Besides, the figures for the MIC in test [7] and in test [8] were 0.0312 µg/mL and 0.0078 µg/mL, respectively. Also, the results for the ED50 in test [9] (1 hour after infection) and in [9] (24 hours before infection) were 1.32 mg/kg and 2.23 mg/kg, respectively.

As for `CC[C@H]1OC(=O)[C@H](C)[C@@H](O[C@H]2C[C@@](C)(OC)[C@@H](O)[C@H](C)O2)[C@H](C)[C@@H](O[C@@H]2O[C@H](C)C[C@H](N(C)C)[C@H]2O)[C@](C)(O)C[C@@H](C)/C(=N\OCCNCCCCCCNCc2cccc(C(F)(F)F)c2)[C@H](C)[C@@H](O)[C@]1(C)O` [Compound 19, Erythromycin A (E)-9-[0-[2-[6-[(3-trifluoromethylphenyl)methylamino]hexylamino]ethyl]oxime]], the MIC came to 2 µg/mL (≈ 1.91 µM) in [1]; 2 µg/mL (≈ 1.91 µM) in test [2]; 8 µg/mL (≈ 7.62 µM) in test [3]; 1 µg/mL (≈ 0.953 µM) in test [4]; 0.0156 µg/mL in test [5]; 0.0078 µg/mL in test [6]. In addition, the MIC in test [7] and in test [8] was 0.0156 µg/mL in each case. Also, the figures for the ED50 in test [9] (1 hour after infection) and in [9] (24 hours before infection) were 1.95 mg/kg and 4.84 mg/kg, respectively.

`CC[C@H]1OC(=O)[C@H](C)[C@@H](O[C@H]2C[C@@](C)(OC)[C@@H](O)[C@H](C)O2)[C@H](C)[C@@H](O[C@@H]2O[C@H](C)C[C@H](N(C)C)[C@H]2O)[C@](C)(O)C[C@@H](C)/C(=N\OCCNCCCCCCNCc2ccccc2C(F)(F)F)[C@H](C)[C@@H](O)[C@]1(C)O` [Compound 21, Erythromycin A (E)-9-[0-[2-[6-[(2-trifluoromethylphenyl)methylamino]hexylamino]ethyl]oxime]]: the MIC came to 2 µg/mL (≈ 1.91 µM) in test [1]; 4 µg/mL (≈ 3.81 µM) in test [2]; 16 µg/mL (≈ 15.2 µM) in test [3]; 1 µg/mL (≈ 0.953 µM) in [4]; 0.0078 µg/mL in [5]; 0.0039 µg/mL in test [6]. The MIC in test [7] came to 0.0078 µg/mL; in [8] it was 0.0156 µg/mL. For the same compound, the results for the ED50 in test [9] (1 hour after infection) and in [9] (24 hours before infection) were 0.82 mg/kg and 5.95 mg/kg, respectively.

Regarding `CC[C@H]1OC(=O)[C@H](C)[C@@H](O[C@H]2C[C@@](C)(OC)[C@@H](O)[C@H](C)O2)[C@H](C)[C@@H](O[C@@H]2O[C@H](C)C[C@H](N(C)C)[C@H]2O)[C@](C)(O)C[C@@H](C)/C(=N\OCCNCCCCCCNCc2ccc(C(F)(F)F)cc2)[C@H](C)[C@@H](O)[C@]1(C)O` [Compound 23, Erythromycin A (E)-9-[0-[2-[6-[(4-trifluoromethylphenyl)methylamino]hexylamino]ethyl]oxime]], the MIC in test [1] stood at 2 µg/mL (≈ 1.91 µM); in [2], 1 µg/mL (≈ 0.953 µM); in [3], 4 µg/mL (≈ 3.81 µM); in test [4], 1 µg/mL (≈ 0.953 µM); in test [5], 0.0156 µg/mL; in [6] it was 0.0078 µg/mL. For the same compound, the MIC in [7] and in test [8] was 0.0156 µg/mL each time. Moreover, the ED50 in test [9] (1 hour after infection) came to 1.46 mg/kg.

In the case of `CCCCOc1ccc(CNCCCCCCNCCO/N=C2\[C@H](C)C[C@@](C)(O)[C@H](O[C@@H]3O[C@H](C)C[C@H](N(C)C)[C@H]3O)[C@@H](C)[C@H](O[C@H]3C[C@@](C)(OC)[C@@H](O)[C@H](C)O3)[C@@H](C)C(=O)O[C@H](CC)[C@@](C)(O)[C@H](O)[C@H]2C)cc1` [Compound 26, Erythromycin A (E)-9-[0-[2-[6-[(4-n.butoxyphenyl)methylamino]hexylamino]ethyl]oxime]], the MIC in [1] worked out at 1 µg/mL (≈ 0.949 µM); in [2], 1 µg/mL (≈ 0.949 µM); in [3], 2 µg/mL (≈ 1.9 µM); in test [4], 0.25 µg/mL (≈ 0.237 µM); in test [5], 0.0156 µg/mL; in test [6], 0.0156 µg/mL. The MIC in test [7] was 0.0312 µg/mL; in test [8], 0.0078 µg/mL. Moreover, the ED50 in test [9] (1 hour after infection) and in test [9] (24 hours before infection) was 6.11 mg/kg throughout.

For the compound `CC[C@H]1OC(=O)[C@H](C)[C@@H](O[C@H]2C[C@@](C)(OC)[C@@H](O)[C@H](C)O2)[C@H](C)[C@@H](O[C@@H]2O[C@H](C)C[C@H](N(C)C)[C@H]2O)[C@](C)(O)C[C@@H](C)/C(=N\OCCNCCCCCCNCc2cccc(Oc3ccccc3)c2)[C@H](C)[C@@H](O)[C@]1(C)O` [Compound 27, Erythromycin A (E)-9-[0-[2-[6-[(3-phenoxyphenyl)methylamino]hexylamino]ethyl]oxime]], the MIC in test [1] worked out at 1 µg/mL (≈ 0.932 µM); in test [2], 1 µg/mL (≈ 0.932 µM); in test [3], 2 µg/mL (≈ 1.86 µM); in test [4] it was 0.5 µg/mL (≈ 0.466 µM); in [5], 0.0078 µg/mL; in test [6], 0.0078 µg/mL. The MIC is 0.0156 µg/mL in test [7] and 0.0078 µg/mL in test [8]. In addition, the ED50 in [9] (1 hour after infection) and in test [9] (24 hours before infection) was 15.6 mg/kg in each case.

As for `CC[C@H]1OC(=O)[C@H](C)[C@@H](O[C@H]2C[C@@](C)(OC)[C@@H](O)[C@H](C)O2)[C@H](C)[C@@H](O[C@@H]2O[C@H](C)C[C@H](N(C)C)[C@H]2O)[C@](C)(O)C[C@@H](C)/C(=N\OCCNCCCCCCNCc2ccc(Oc3ccccc3)cc2)[C@H](C)[C@@H](O)[C@]1(C)O` [Compound 29, Erythromycin A (E)-9-[0-[2-[6-[(4-phenoxyphenyl)methylamino]hexylamino]ethyl]oxime]], the MIC is 1 µg/mL (≈ 0.932 µM) in test [1]; 1 µg/mL (≈ 0.932 µM) in test [2]; 2 µg/mL (≈ 1.86 µM) in test [3]; 0.5 µg/mL (≈ 0.466 µM) in [4]; 0.0078 µg/mL in test [5]; 0.0156 µg/mL in [6]. In addition, the results for the MIC in test [7] and in test [8] were 0.0312 µg/mL and 0.0039 µg/mL, respectively. For the same compound, the ED50 was 7.65 mg/kg in [9] (1 hour after infection) and 6.1 mg/kg in test [9] (24 hours before infection).
